Measurements from patent US10294202B2, “Pyrrolidinones as herbicides” (FMC Corporation, priority 2013, dated 2019).

Tests used:
barnyardgrass [1] = experiment: Test A pre-/postemergence herbicide test; assay type: in vivo, Echinochloa crus-galli
How it was run: (§1)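 Planted in loam–sand blend; treated the same day preemergence by directed soil spray, while separately grown plants at one- to two-leaf stage got postemergence spray. Compared visually with untreated controls after approximately 10 days; 100 means complete control.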

crabgrass, large = experiment: Test A pre-/postemergence herbicide test; assay type: in vivo, Digitaria sanguinalis
How it was run: as §1

giant foxtail = experiment: Test A pre-/postemergence herbicide test; assay type: in vivo, Setaria faberii
How it was run: as §1

morningglory = experiment: Test A pre-/postemergence herbicide test; assay type: in vivo, Ipomoea spp.
How it was run: as §1

pigweed = experiment: Test A pre-/postemergence herbicide test; assay type: in vivo, Amaranthus retroflexus
How it was run: as §1

velvetleaf = experiment: Test A pre-/postemergence herbicide test; assay type: in vivo, Abutilon theophrasti
How it was run: as §1

wheat = experiment: Test A pre-/postemergence herbicide test; assay type: in vivo, Triticum aestivum
How it was run: as §1

corn = experiment: Test A pre-/postemergence herbicide test; assay type: in vivo, Zea mays
How it was run: as §1

rice [2] = experiment: Test B flooded paddy test; assay type: in vivo, Oryza sativa; details: Flood, scale of 0 to 100 where 0 is no effect and 100 is complete control
How it was run: (§2)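 2-leaf plants; flood 3 cm over soil; compound into paddy water; depth held. Greenhouse 13–15 d. Visual rating vs controls, 0 (no effect) to 100 (complete control); dash = not tested.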

sedge, umbrella [3] = experiment: Test B flooded paddy test; assay type: in vivo, Cyperus difformis; details: Flood, scale of 0 to 100 where 0 is no effect and 100 is complete control
How it was run: as §2

ducksalad [4] = experiment: Test B flooded paddy test; assay type: in vivo, Heteranthera limosa; details: Flood, scale of 0 to 100 where 0 is no effect and 100 is complete control
How it was run: as §2

barnyardgrass [5] = experiment: Test B flooded paddy test; assay type: in vivo, Echinochloa crus-galli; details: Flood, scale of 0 to 100 where 0 is no effect and 100 is complete control
How it was run: as §2

rice [6] = experiment: Test C flooded paddy test; assay type: in vivo, Oryza sativa; details: Flood
How it was run: (§3)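 Ratings reflect visual comparison with controls on a 0–100 scale, where 100 is complete control. Compound is dosed into standing paddy water 3 cm deep over 2-leaf-stage plants, kept in the greenhouse 13 to 15 days.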

sedge, umbrella [7] = experiment: Test C flooded paddy test; assay type: in vivo, Cyperus difformis; details: Flood
How it was run: as §3

ducksalad [8] = experiment: Test C flooded paddy test; assay type: in vivo, Heteranthera limosa; details: Flood
How it was run: as §3

barnyardgrass [9] = experiment: Test C flooded paddy test; assay type: in vivo, Echinochloa crus-galli; details: Flood
How it was run: as §3

kochia = experiment: Test A pre-/postemergence herbicide test; assay type: in vivo, Kochia scoparia; details: for Plant response rating, Kochia: 0 to 100 scale
How it was run: as §1

ragweed = experiment: Test A pre-/postemergence herbicide test; assay type: in vivo, Ambrosia elatior; details: for Plant response rating, Ragweed: 0 to 100 scale
How it was run: as §1

ryegrass, Italian = experiment: Test A pre-/postemergence herbicide test; assay type: in vivo, Lolium multiflorum; details: for Plant response rating, Ryegrass, Italian: 0 to 100 scale
How it was run: as §1

blackgrass = experiment: Test A postemergence herbicide test; assay type: in vivo, Alopecurus myosuroides
How it was run: (§4)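 Plants at the one- to two-leaf stage, 2–10 cm tall, grown in loam/sand pots, received postemergence sprays of the test chemicals. After about 10 days in the greenhouse, injury was scored visually against untreated controls on a 0–100 scale (0 none, 100 complete control).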

galium = experiment: Test A postemergence herbicide test; assay type: in vivo, Galium aparine
How it was run: as §4

[10] = Postemergence, 125 g ai/ha, 0 to 100 scale, 0 no effect, 100 complete control
[11] = Postemergence, 500 g ai/ha, 0 to 100 scale (0 no effect, 100 complete control)
[12] = Preemergence, 125 g ai/ha, visual rating on 0 to 100 scale (0 no effect, 100 complete control)
[13] = preemergence, 500 g ai/ha, 0 to 100 scale (0 no effect, 100 complete control)
[14] = preemergence, 500 g ai/ha, 0 to 100 scale
[15] = 125 g ai/ha, scale of 0 to 100 where 0 is no effect and 100 is complete control, 13 to 15 days
[16] = 125 g ai/ha, visual rating, 0 to 100 scale, 0 no effect, 100 complete control, approximately 10 days, preemergence
[17] = 125 g ai/ha, visual rating, 0 no effect, 100 complete control, approximately 10 days, preemergence
[18] = Postemergence, 125 g ai/ha, 0 no effect, 100 complete control
[19] = preemergence, 500 g ai/ha, 0 is no effect and 100 is complete control
[20] = 125 g ai/ha, 0 to 100 scale, 0 no effect, 100 complete control

O=C1NCC(c2ccc(Cl)cc2)C1C(=O)Nc1ccccc1F (racemic) [Compound 87]
Plant response rating, Barnyardgrass (barnyardgrass [1]; [10]): 50 | Plant response rating, Barnyardgrass (barnyardgrass [1]; [11]): 80 | Barnyardgrass plant response rating (barnyardgrass [1]; [12]): 20 | Plant response rating, Barnyardgrass (barnyardgrass [1]; [13]): 80 | Plant response rating, Crabgrass, Large (crabgrass, large; [10]): 60 | Plant response rating, Crabgrass, Large (crabgrass, large; [11]): 80 | Crabgrass, Large plant response rating (crabgrass, large; [12]): 80 | Plant response rating, Crabgrass, Large (crabgrass, large; [14]): 90 | Plant response rating, Foxtail, Giant (giant foxtail; [10]): 50 | Plant response rating, Foxtail, Giant (giant foxtail; [11]): 80 | Foxtail, Giant plant response rating (giant foxtail; [12]): 60 | Plant response rating, Foxtail, Giant (giant foxtail; [14]): 90 | Plant response rating, Morningglory (morningglory; [10]): 0 | Plant response rating, Morningglory (morningglory; [11]): 10 | Morningglory plant response rating (morningglory; [12]): 0 | Plant response rating, Morningglory (morningglory; [14]): 0 | Plant response rating, Pigweed (pigweed; [10]): 0 | Plant response rating, Pigweed (pigweed; [11]): 20 | Pigweed plant response rating (pigweed; [12]): 0 | Plant response rating, Pigweed (pigweed; [14]): 0 | Plant response rating, Velvetleaf (velvetleaf; [10]): 0 | Plant response rating, Velvetleaf (velvetleaf; [11]): 0 | Velvetleaf plant response rating (velvetleaf; [12]): 0 | Plant response rating, Velvetleaf (velvetleaf; [14]): 0 | Plant response rating, Wheat (wheat; [10]): 0 | Plant response rating, Wheat (wheat; [11]): 20 | Wheat plant response rating (wheat; [12]): 0 | Plant response rating, Wheat (wheat; [14]): 10 | Plant response rating, Corn (corn; [10]): 0 | Plant response rating, Corn (corn; [11]): 0 | Corn plant response rating (corn; [12]): 0 | Plant response rating, Corn (corn; [14]): 0 | Plant response rating, Rice (rice [2]; 250 g ai/ha): 0 | Plant response rating, Sedge, Umbrella (sedge, umbrella [3]; 250 g ai/ha): 0 | Plant response rating, Ducksalad (ducksalad [4]; 250 g ai/ha): 80 | Plant response rating, Barnyardgrass (barnyardgrass [5]; 250 g ai/ha): 60 | Plant response rating, Rice (rice [6]; [15]): 0 | Plant response rating, Rice (rice [6]; 250 g ai/ha, scale 0 to 100): 0 | Plant response rating, Rice (rice [6]; 500 g ai/ha, scale 0 to 100): 0 | Plant response rating, Rice (rice [6]; 1000 g ai/ha, scale 0 to 100): 30 | Plant response rating, Sedge, Umbrella (sedge, umbrella [7]; [15]): 0 | Plant response rating, Sedge, Umbrella (sedge, umbrella [7]; 250 g ai/ha, scale 0 to 100): 0 | Plant response rating, Sedge, Umbrella (sedge, umbrella [7]; 500 g ai/ha, scale 0 to 100): 0 | Plant response rating, Sedge, Umbrella (sedge, umbrella [7]; 1000 g ai/ha, scale 0 to 100): 0 | Plant response rating, Ducksalad (ducksalad [8]; [15]): 75 | Plant response rating, Ducksalad (ducksalad [8]; 250 g ai/ha, scale 0 to 100): 95 | Plant response rating, Ducksalad (ducksalad [8]; 500 g ai/ha, scale 0 to 100): 100 | Plant response rating, Ducksalad (ducksalad [8]; 1000 g ai/ha, scale 0 to 100): 100 | Plant response rating, Barnyardgrass (barnyardgrass [9]; [15]): 0 | Plant response rating, Barnyardgrass (barnyardgrass [9]; 250 g ai/ha, scale 0 to 100): 0 | Plant response rating, Barnyardgrass (barnyardgrass [9]; 500 g ai/ha, scale 0 to 100): 25 | Plant response rating, Barnyardgrass (barnyardgrass [9]; 1000 g ai/ha, scale 0 to 100): 40

Cc1ccc(C2CNC(=O)C2C(=O)Nc2ccccc2Cl)cc1 (racemic) [Compound 152]
Plant response rating, Barnyardgrass (barnyardgrass [1]; [16]): 90 | Plant response rating, Barnyardgrass (barnyardgrass [1]; [10]): 70 | Barnyardgrass plant response rating (0 to 100 scale, 0 is no effect, 100 is complete control) (barnyardgrass [1]; Postemergence, 500 g ai/ha): 80 | Plant response rating, Barnyardgrass (barnyardgrass [1]; [13]): 90 | Plant response rating, Kochia (kochia; [17]): 30 | Plant response rating, Kochia (kochia; [18]): 50 | Kochia plant response rating (0 to 100 scale, 0 is no effect, 100 is complete control) (kochia; Postemergence, 500 g ai/ha): 60 | Plant response rating, Kochia (kochia; [19]): 60 | Plant response rating, Ragweed (ragweed; [17]): 50 | Plant response rating, Ragweed (ragweed; [18]): 40 | Ragweed plant response rating (0 to 100 scale, 0 is no effect, 100 is complete control) (ragweed; Postemergence, 500 g ai/ha): 50 | Plant response rating, Ragweed (ragweed; [19]): 70 | Plant response rating, Ryegrass, Italian (ryegrass, Italian; [17]): 0 | Plant response rating, Ryegrass, Italian (ryegrass, Italian; [18]): 10 | Ryegrass, Italian plant response rating (0 to 100 scale, 0 is no effect, 100 is complete control) (ryegrass, Italian; Postemergence, 500 g ai/ha): 50 | Plant response rating, Ryegrass, Italian (ryegrass, Italian; [19]): 30 | Plant response rating, Foxtail, Giant (giant foxtail; [16]): 70 | Plant response rating, Foxtail, Giant (giant foxtail; [10]): 50 | Foxtail, Giant plant response rating (0 to 100 scale, 0 is no effect, 100 is complete control) (giant foxtail; Postemergence, 500 g ai/ha): 60 | Plant response rating, Foxtail, Giant (giant foxtail; [14]): 90 | Plant response rating, Pigweed (pigweed; [16]): 0 | Plant response rating, Pigweed (pigweed; [10]): 0 | Pigweed plant response rating (0 to 100 scale, 0 is no effect, 100 is complete control) (pigweed; Postemergence, 500 g ai/ha): 20 | Plant response rating, Pigweed (pigweed; preemergence, 500 g ai/ha, 0 to 100 scale, 0 is no effect and 100 is complete control): 10 | Plant response rating, Wheat (wheat; [10]): 0 | Wheat plant response rating (0 to 100 scale, 0 is no effect, 100 is complete control) (wheat; Postemergence, 500 g ai/ha): 0 | Plant response rating, Corn (corn; [10]): 0 | Corn plant response rating (0 to 100 scale, 0 is no effect, 100 is complete control) (corn; Postemergence, 500 g ai/ha): 0 | Plant response rating, Blackgrass (blackgrass; [20]): 0 | Blackgrass plant response rating (0 to 100 scale, 0 is no effect, 100 is complete control) (blackgrass; 500 g ai/ha): 50 | Plant response rating, Galium (galium; [20]): 60 | Galium plant response rating (0 to 100 scale, 0 is no effect, 100 is complete control) (galium; 500 g ai/ha): 70 | Plant response rating, Rice (rice [2]; 500 g ai/ha): 15 | Plant response rating, Sedge, Umbrella (sedge, umbrella [3]; 500 g ai/ha): 0 | Plant response rating, Ducksalad (ducksalad [4]; 500 g ai/ha): 100 | Plant response rating, Barnyardgrass (barnyardgrass [5]; 500 g ai/ha): 60
